ChEMBL document CHEMBL1145498, “A systematic interaction map of validated kinase inhibitors with Ser/Thr kinases” (Proc Natl Acad Sci U S A, 2007)

Assays:
[1] = molecular target: cAMP-dependent protein kinase catalytic subunit alpha (Homo sapiens) (UniProt P17612)
[2] = molecular target: Dual specificity protein kinase CLK2 (Homo sapiens) (UniProt P49760)
[3] = molecular target: T1, Myotonin-protein kinase (Homo sapiens) (UniProt Q09013)
T1 sequence (whole entry): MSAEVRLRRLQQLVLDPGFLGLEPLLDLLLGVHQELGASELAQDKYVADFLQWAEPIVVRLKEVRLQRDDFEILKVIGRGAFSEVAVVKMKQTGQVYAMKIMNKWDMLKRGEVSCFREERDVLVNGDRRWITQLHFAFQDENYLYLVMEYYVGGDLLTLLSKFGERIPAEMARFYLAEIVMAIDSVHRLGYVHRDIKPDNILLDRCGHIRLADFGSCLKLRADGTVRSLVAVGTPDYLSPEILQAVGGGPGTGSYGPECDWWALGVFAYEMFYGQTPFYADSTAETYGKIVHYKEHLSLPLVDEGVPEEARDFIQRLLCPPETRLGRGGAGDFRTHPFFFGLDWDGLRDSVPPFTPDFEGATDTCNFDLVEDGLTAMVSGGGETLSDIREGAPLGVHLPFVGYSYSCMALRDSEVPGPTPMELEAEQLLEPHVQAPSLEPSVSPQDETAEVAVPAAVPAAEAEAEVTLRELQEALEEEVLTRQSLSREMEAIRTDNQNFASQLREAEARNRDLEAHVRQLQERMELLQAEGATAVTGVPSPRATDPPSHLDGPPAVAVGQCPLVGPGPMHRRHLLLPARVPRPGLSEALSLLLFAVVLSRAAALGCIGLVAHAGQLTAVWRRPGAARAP

[4] = molecular target: Dual specificity protein kinase CLK1 (Homo sapiens) (UniProt P49759)
[5] = molecular target: Cyclin-dependent kinase 6 (Homo sapiens) (UniProt Q00534)
[6] = molecular target: Serine/threonine-protein kinase 16 (Homo sapiens) (UniProt O75716)
[7] = molecular target: Ribosomal protein S6 kinase alpha-3 (Homo sapiens) (UniProt P51812)
[8] = molecular target: 5'-AMP-activated protein kinase catalytic subunit alpha-2 (Homo sapiens) (UniProt P54646)
[9] = molecular target: Tyrosine-protein kinase JAK1 (Homo sapiens) (UniProt P23458)
[10] = molecular target: Death-associated protein kinase 3 (Homo sapiens) (UniProt O43293)
[11] = molecular target: Serine/threonine-protein kinase Chk2 (Homo sapiens, UniProt O96017)
[12] = molecular target: T2, Calcium/calmodulin-dependent protein kinase type IV (Homo sapiens) (UniProt Q16566)
T2 sequence (whole entry): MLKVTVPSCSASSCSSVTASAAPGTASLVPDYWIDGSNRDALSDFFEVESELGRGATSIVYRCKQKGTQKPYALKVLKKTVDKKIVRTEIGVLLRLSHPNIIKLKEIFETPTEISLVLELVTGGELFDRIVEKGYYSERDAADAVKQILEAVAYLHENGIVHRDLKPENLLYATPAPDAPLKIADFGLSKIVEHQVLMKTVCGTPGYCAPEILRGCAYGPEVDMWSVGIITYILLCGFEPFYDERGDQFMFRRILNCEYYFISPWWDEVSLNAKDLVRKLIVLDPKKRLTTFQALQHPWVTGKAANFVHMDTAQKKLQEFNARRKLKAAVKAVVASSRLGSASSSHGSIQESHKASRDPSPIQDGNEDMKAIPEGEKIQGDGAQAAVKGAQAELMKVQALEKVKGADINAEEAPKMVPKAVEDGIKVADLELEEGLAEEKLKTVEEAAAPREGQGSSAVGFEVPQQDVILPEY

[13] = molecular target: Mitogen-activated protein kinase 3 (Homo sapiens, UniProt P27361)
[14] = molecular target: Serine/threonine-protein kinase PLK1 (Homo sapiens) (UniProt P53350)
[15] = molecular target: Calcium/calmodulin-dependent protein kinase type II subunit beta (Homo sapiens) (UniProt Q13554)
[16] = molecular target: Serine/threonine-protein kinase 26 (Homo sapiens) (UniProt Q9P289)
[17] = molecular target: T3, Serine/threonine-protein kinase VRK1 (Homo sapiens) (UniProt Q99986)
T3 sequence (whole entry): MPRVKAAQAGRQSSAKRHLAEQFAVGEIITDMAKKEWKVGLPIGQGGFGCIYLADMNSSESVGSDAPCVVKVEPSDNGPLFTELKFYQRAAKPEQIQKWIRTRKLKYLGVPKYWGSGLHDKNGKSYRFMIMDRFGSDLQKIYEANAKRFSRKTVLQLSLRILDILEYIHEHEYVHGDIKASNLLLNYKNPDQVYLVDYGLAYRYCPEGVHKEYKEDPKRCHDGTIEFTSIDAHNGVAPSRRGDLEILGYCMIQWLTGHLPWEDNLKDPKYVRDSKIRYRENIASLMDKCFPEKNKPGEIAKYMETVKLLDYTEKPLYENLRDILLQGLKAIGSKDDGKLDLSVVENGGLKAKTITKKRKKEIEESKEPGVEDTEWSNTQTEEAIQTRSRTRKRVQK

[18] = molecular target: Cyclin-dependent kinase-like 1 (Homo sapiens) (UniProt Q00532)
Chain of Cyclin-dependent kinase-like 1 (Homo sapiens) (Q00532 whole entry): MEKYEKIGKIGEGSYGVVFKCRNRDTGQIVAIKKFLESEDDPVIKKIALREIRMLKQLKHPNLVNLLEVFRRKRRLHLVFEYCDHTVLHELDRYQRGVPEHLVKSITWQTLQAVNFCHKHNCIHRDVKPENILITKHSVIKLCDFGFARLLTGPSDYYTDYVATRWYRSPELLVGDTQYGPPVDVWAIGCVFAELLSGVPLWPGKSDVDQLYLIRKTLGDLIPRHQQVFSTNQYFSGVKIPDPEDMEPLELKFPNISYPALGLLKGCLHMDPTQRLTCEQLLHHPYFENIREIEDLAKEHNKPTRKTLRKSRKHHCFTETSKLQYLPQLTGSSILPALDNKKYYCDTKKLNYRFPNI

Chain of Death-associated protein kinase 3 (Homo sapiens) (O43293 whole entry, looked up): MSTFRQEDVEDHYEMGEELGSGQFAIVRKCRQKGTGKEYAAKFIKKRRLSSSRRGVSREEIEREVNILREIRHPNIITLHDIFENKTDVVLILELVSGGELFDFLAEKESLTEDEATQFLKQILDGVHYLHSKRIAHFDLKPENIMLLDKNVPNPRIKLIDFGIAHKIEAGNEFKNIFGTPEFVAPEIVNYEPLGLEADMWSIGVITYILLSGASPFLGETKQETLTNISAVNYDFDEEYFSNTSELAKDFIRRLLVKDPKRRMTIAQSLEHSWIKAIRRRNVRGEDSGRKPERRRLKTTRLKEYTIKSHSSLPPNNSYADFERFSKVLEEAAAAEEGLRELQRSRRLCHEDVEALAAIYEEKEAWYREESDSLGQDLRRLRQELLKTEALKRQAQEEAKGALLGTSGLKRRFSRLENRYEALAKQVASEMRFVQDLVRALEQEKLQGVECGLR
Chain of Ribosomal protein S6 kinase alpha-3 (Homo sapiens) (P51812 whole entry): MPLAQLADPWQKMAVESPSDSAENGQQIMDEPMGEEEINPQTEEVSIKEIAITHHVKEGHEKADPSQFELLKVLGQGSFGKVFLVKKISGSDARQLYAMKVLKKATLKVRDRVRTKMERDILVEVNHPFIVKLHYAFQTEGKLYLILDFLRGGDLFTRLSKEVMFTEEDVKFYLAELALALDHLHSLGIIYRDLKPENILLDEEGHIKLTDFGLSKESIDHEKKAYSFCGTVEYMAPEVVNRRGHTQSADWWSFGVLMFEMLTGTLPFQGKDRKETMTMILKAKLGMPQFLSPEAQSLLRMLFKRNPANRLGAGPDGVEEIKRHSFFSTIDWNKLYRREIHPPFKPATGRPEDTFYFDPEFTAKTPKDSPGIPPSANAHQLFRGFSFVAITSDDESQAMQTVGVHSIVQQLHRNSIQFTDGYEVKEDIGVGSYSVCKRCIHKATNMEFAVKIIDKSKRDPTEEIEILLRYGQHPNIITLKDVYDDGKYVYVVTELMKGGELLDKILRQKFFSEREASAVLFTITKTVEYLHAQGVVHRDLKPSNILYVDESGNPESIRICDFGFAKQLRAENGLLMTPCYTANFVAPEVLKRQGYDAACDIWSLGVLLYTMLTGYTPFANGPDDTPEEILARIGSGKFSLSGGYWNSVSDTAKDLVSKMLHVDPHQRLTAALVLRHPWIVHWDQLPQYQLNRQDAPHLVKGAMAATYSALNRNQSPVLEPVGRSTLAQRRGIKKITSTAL
Chain of Dual specificity protein kinase CLK1 (Homo sapiens) (P49759 whole entry, looked up): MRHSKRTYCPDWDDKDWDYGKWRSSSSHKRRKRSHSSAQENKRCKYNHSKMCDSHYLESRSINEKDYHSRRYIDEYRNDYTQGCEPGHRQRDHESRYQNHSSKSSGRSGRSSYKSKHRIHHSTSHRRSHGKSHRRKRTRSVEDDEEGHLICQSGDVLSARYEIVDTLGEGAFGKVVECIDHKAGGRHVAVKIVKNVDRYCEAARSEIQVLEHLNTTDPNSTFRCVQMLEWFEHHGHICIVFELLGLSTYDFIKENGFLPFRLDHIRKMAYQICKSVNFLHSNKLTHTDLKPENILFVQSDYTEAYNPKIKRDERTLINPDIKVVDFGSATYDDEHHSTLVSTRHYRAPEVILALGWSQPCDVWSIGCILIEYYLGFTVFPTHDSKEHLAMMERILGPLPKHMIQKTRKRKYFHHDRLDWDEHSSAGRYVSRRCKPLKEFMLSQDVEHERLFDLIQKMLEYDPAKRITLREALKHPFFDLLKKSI
Chain of Mitogen-activated protein kinase 3 (P27361 whole entry): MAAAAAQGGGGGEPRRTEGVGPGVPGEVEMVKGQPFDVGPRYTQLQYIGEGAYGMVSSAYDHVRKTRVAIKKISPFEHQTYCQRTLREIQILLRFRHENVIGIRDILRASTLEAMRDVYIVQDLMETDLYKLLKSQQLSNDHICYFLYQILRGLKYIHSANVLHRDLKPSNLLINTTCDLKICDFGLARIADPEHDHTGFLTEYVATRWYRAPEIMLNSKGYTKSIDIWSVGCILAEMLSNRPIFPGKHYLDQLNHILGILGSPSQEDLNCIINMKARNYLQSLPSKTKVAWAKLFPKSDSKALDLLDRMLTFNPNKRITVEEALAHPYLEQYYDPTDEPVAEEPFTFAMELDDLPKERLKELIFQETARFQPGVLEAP
Chain of Serine/threonine-protein kinase 16 (Homo sapiens) (O75716 whole entry): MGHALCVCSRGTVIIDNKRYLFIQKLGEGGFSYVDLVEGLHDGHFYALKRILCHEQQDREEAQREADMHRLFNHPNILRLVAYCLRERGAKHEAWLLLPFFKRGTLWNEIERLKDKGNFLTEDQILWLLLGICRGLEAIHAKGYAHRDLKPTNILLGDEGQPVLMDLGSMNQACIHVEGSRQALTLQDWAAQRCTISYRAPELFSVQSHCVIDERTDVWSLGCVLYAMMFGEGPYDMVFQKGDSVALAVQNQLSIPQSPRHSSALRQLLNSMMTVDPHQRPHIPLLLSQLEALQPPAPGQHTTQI
Chain of Serine/threonine-protein kinase 26 (Homo sapiens) (Q9P289 2-416 limits assumed): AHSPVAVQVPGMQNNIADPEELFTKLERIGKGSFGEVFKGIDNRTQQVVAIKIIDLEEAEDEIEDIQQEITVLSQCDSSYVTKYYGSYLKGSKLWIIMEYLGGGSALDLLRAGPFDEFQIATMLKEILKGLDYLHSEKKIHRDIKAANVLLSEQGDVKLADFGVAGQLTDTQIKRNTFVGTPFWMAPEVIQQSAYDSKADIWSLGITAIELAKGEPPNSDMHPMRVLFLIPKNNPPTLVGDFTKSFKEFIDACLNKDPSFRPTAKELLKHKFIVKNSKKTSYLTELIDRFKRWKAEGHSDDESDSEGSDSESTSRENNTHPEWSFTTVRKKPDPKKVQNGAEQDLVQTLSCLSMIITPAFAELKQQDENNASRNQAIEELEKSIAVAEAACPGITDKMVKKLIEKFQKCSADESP
Chain of Serine/threonine-protein kinase Chk2 (O96017 whole entry): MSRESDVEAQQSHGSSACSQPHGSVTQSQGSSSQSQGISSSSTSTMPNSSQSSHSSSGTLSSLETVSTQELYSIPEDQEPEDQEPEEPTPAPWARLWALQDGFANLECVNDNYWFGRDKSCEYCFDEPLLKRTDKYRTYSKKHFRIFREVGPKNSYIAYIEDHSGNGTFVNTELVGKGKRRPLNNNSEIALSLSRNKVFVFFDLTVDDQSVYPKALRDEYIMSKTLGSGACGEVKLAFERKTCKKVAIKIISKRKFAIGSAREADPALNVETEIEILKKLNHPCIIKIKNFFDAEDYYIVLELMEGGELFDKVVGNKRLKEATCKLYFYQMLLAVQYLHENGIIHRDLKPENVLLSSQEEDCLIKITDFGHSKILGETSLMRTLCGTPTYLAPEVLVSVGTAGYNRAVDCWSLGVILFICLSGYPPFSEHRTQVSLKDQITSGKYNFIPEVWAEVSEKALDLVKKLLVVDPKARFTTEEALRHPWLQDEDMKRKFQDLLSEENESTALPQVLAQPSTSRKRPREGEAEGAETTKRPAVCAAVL
Chain of Cyclin-dependent kinase 6 (Homo sapiens) (Q00534 whole entry): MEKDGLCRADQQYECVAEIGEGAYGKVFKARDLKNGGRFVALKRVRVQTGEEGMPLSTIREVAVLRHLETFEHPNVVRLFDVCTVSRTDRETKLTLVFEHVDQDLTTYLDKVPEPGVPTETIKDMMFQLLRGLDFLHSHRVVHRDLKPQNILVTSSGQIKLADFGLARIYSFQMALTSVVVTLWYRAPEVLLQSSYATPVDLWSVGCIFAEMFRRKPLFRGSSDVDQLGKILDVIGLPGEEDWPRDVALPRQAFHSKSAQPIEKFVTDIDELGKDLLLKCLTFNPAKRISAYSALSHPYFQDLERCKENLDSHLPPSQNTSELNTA
Chain of Serine/threonine-protein kinase PLK1 (Homo sapiens) (P53350 whole entry): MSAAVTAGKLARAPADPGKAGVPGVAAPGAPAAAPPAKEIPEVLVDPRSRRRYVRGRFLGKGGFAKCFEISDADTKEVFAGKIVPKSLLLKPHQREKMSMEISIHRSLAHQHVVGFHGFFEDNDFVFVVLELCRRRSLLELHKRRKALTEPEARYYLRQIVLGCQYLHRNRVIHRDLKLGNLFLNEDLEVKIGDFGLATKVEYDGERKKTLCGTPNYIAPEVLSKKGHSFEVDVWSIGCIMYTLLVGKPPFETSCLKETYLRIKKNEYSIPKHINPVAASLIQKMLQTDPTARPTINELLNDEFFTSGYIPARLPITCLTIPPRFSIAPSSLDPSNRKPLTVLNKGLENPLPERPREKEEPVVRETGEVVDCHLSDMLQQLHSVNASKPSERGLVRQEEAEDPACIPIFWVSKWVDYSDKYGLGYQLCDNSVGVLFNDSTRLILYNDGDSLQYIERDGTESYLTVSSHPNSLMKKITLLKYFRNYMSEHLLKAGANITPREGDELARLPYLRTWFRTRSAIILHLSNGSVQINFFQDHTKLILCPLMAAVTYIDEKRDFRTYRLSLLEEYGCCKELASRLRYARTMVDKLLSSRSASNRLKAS

SMILES | ΔTm [1] | ΔTm [2] | ΔTm [3] | ΔTm [4] | ΔTm [5] | ΔTm [6] | ΔTm [7] | ΔTm [8] | ΔTm [9] | ΔTm [10] | ΔTm [11] | ΔTm [12] | ΔTm [13] | ΔTm [14] | ΔTm [15] | ΔTm [16] | ΔTm [17] | ΔTm [18]
CCOc1cc(/C=C(\C#N)C(N)=O)cc(CSc2ccccc2)c1O | 1 °C | 0.2 °C | -0.5 °C | 0 °C | 0 °C | 1 °C | 0.1 °C | 0 °C | 4.3 °C | 0.1 °C | 0 °C | 0.1 °C | 0.2 °C | 1.9 °C | -0.2 °C | -0.5 °C | -0.1 °C | -0.1 °C
Oc1ccc(-c2nc(-c3ccc(F)cc3)c(-c3ccncc3)[nH]2)cc1 | 2.6 °C | 0.1 °C | 0.2 °C | 0.8 °C | 0.2 °C | 0.5 °C | 0.3 °C | -0.7 °C | 4.4 °C | 0.9 °C | -0.2 °C | 0.2 °C | 0.4 °C | 0.1 °C | 0.1 °C | -0.4 °C | 0 °C | -0.2 °C
Nc1n[nH]c2nnc(-c3c(-c4ccccc4)nn4ccccc34)cc12 | 0.3 °C | 0.5 °C | 2.3 °C | 0.7 °C | 1.7 °C | 0 °C | 1.7 °C | 0 °C | 0.3 °C | 3.9 °C | 0.9 °C | 0.7 °C | 0.4 °C | -0.3 °C | -0.6 °C | -0.1 °C | -0.3 °C | 0.2 °C
O=Nc1c(-c2c(O)[nH]c3ccccc23)[nH]c2ccccc12 | 3.8 °C | 1.5 °C | -0.3 °C | 4 °C | 3.3 °C | 5.1 °C | 0 °C | 4.5 °C | 9.4 °C | 1.2 °C | 3.1 °C | 4.5 °C | 0.9 °C | 0.2 °C | 1.6 °C | 2.7 °C | 0.1 °C | 3.8 °C
CN(C)CC1CCn2c(c(C3=C(c4c[nH]c5ccccc45)C(=O)NC3=O)c3ccccc32)C1 (configuration not stated) | 2.2 °C | 1.1 °C | 6.4 °C | 2 °C | 0.8 °C | 1.3 °C | 0.8 °C | -0.5 °C | -1.5 °C | 0.5 °C | 0.6 °C | -0.2 °C | -0.2 °C | -0.2 °C | 1 °C | 0.4 °C | 0.5 °C | 0.5 °C
Nc1ncnc2c1c(I)cn2[C@@H]1O[C@H](CO)[C@@H](O)[C@H]1O | 1.3 °C | 5.6 °C | -0.3 °C | 9.5 °C | -0.2 °C | 3.9 °C | 1.4 °C | 1 °C | 0.2 °C | 2.9 °C | 0.9 °C | 2.5 °C | 1.5 °C | 1 °C | 0.4 °C | 2.1 °C | 0.1 °C | 0.2 °C
O=c1c(-c2ccc(O)cc2)coc2cc(O)cc(O)c12 | 2.1 °C | 0.5 °C | 2.4 °C | 1.1 °C | 0.1 °C | 4.3 °C | 1.5 °C | 1.6 °C | -0.2 °C | 0.5 °C | 1.6 °C | -0.8 °C | 0.6 °C | 1.4 °C | 1.2 °C | 0.8 °C | 0.6 °C | -0.1 °C
O=C1Nc2ccc(I)cc2/C1=C1/Nc2ccccc2/C1=N\O | -0.7 °C | 2.9 °C | 1 °C | 3.2 °C | 0.8 °C | 1.9 °C | 3.3 °C | 6.8 °C | 8.3 °C | 1.4 °C | 1.9 °C | 2.6 °C | 2.1 °C | -0.7 °C | 1.2 °C | 0 °C | 0.1 °C | 5.4 °C
COc1ccc(COc2ccc(Cc3cnc(N)nc3N)cc2OC)cc1 | -0.2 °C | -0.2 °C | 0.1 °C | -1.5 °C | 0.9 °C | 0 °C | -0.2 °C | 0.1 °C | 0.3 °C | 0.3 °C | 0.1 °C | 0 °C | 0.3 °C | -1 °C | -0.2 °C | 0 °C | -0.2 °C | -0.2 °C
O=C(O)c1cc(NCc2cc(O)ccc2O)ccc1O | -0.2 °C | -0.1 °C | 0.3 °C | 0.1 °C | -0.3 °C | 0.5 °C | 0.3 °C | -0.8 °C | -0.2 °C | -0.4 °C | 0 °C | 0.1 °C | -0.1 °C | 0.3 °C | 0 °C | -0.1 °C | -0.2 °C | -0.4 °C
Nc1nccc(-c2c(-c3ccc(F)cc3)ncn2C2CCNCC2)n1 | 0.7 °C | 0.3 °C | 0.6 °C | 1.3 °C | 0.3 °C | -0.1 °C | -0.1 °C | 0.4 °C | 0.7 °C | 0.8 °C | 0.1 °C | 0.2 °C | 0.5 °C | 0.1 °C | -0.2 °C | 2.1 °C | 1.1 °C | 0.4 °C
Oc1cccc(-c2nc(N3CCOCC3)c3oc4ncccc4c3n2)c1 | 0.8 °C | 0 °C | -0.7 °C | 0.6 °C | -0.4 °C | 0.3 °C | -0.6 °C | -0.1 °C | 0.1 °C | 0 °C | 1.4 °C | 0 °C | 0 °C | 0.3 °C | 0.1 °C | 0.9 °C | -0.1 °C | -0.3 °C
Cc1ccc(NC(=O)c2ccc(CN3CCN(C)CC3)cc2)cc1Nc1nccc(-c2cccnc2)n1 | 0.8 °C |  | 0.6 °C |  | 0.2 °C | 2.9 °C | -0.4 °C | 2.6 °C | 0.1 °C | 2.8 °C | -1.1 °C | -0.5 °C | 0.6 °C | 1.6 °C | 0.1 °C | -0.3 °C | 0.4 °C | 0.3 °C
